Laboratory results taken from patent publication US11364242B2, “Treatment agents for inhibiting HIV and cancer in HIV infected patients” (UNIVERSITY OF MARYLAND, BALTIMORE, priority 2015, dated 2022).
“Also recorded” adds a separate entry of the source. Like-named read-outs stand apart in the source and are kept apart here.

Legend:
[1] = system: R5 HIV (JRFL); assay: Real-time PCR of early reverse transcription products and integrated HIV DNA in infected PBLs; format: cell-based; conditions: 72 hours, PBLs from two donors
Procedure: (§1) Activated PBLs were infected with R5 and X4 HIV strains using a MOI of 0.01. Infected cells were cultured in the presence of IL-2 and different concentrations of INK128. Cell aliquots were collected at 16 and 72 hours for analyses of early products of reverse transcription and of integration, respectively, by real time PCR. Detection of early products of reverse transcription was done with primers specific for the R/U5 region (60). For detection of integrated HIV DNA, a real-time nested Alu-HIV PCR assay was used as previously described (61, 62), with the modifications described herein.
DNA was isolated using Miniblood kit (Qiagen™). PCR amplification was performed using Quantitect SYBR Green™ PCR Kit (Qiagen™) in a LightCycler™ (Biorad™). Detection of early products of reverse transcription was done in reactions containing 100 ng of DNA and the primer pair 5′-[…]-3′ (SEQ ID NO. 1) and 5′-[…]-3′ (SEQ ID NO. 2) (R/U5 region) (60). […] Amplified products were analyzed by denaturation/renaturation to verify the specific Tm. The PCR cycle at which the signal entered the exponential range was used for quantification, and HIV copy numbers were corrected for those of α-tubulin. […] As a standard curve for relative quantification of integrated DNA, the Alu-gag was first run using serial dilutions of DNA isolated from HIV infected PBLs (diluted in HIV-negative DNA). […]

[2] = system: chronically HIV-infected U1 cell line; assay: HIV activation in chronically infected U1 cells, p24 ELISA; format: cell-based; conditions: INK128 <10 nM, day 3
Procedure: FIG. 5A-5C are bar graphs that illustrate INK128's inhibition of HIV activation in chronically infected cells. Latently HIV infected U1 cells were cultured in the presence of various concentrations of INK128 for 1 hour. Cultures were then untreated (FIG. 5A), or treated with HIV inducers PMA (FIG. 5B) and Tat protein (FIG. 5C). HIV production was measured by p24 ELISA in the culture supernatants on day 3 according to an embodiment.
The effects of INK128 on activation of HIV in the chronically HIV-infected U1 cell line were examined. The U1 cell line carries two copies of the HIV provirus per cell (33). Under basal conditions, U1 cells express low levels of HIV, but HIV expression is enhanced by stimulation with the phorbol ester PMA or by exogenous addition of Tat (34, 35). U1 cells were cultured in the presence of INK128 in the absence and presence of 10 nM PMA or 1 μg/mL Tat. […] As expected, unstimulated U1 cells produced low levels of HIV p24, but production was increased by addition of PMA or Tat.

[3] = system: R5 and X4 HIV, laboratory-adapted and primary isolates; assay: Infectivity assays in primary PBLs, summary over strains; format: cell-based
Procedure: PBLs were separated from buffy coats by density centrifugation over Ficoll-Hypaque (Sigma™), and activated by culture in the presence of 1 μg/mL anti-human CD3 antibody (clone x35, Fisher Scientific™) and 2 μg/mL anti-human CD28 antibody (Clone CD28.6, eBioscience™) for 3 days. Activated cells were infected by incubation with virus at a multiplicity of infection (MOI) of 0.001 for 2 hours. Infected cells were washed three times with PBS and cultured in 5% CO2 at 37° C., in RPMI/10% FBS supplemented with 100 units/mL IL-2 (Roche™) and antiviral drugs, in 96-well flat-bottom plates at a density of […] PBLs per 200 μL. Following 3 d of culture, half of the medium was replaced with fresh medium containing IL-2 and antiviral drugs. On day 7, viral replication was measured by p24 ELISA (Coulter) in culture supernatants and cell viability was measured by MTT assays.
The antiviral activity of INK128 was investigated in PBLs infected with CCR5 (R5)-tropic and CXCR4 (X4)-tropic HIV reference strains BaL and HXB2, respectively.

[4] = system: X4 HIV (HXB2); assay: Real-time PCR of early reverse transcription products and integrated HIV DNA in infected PBLs; format: cell-based; conditions: PBLs from two donors
Procedure: as §1
DNA was isolated using Miniblood kit (Qiagen™). PCR amplification was performed using Quantitect SYBR Green™ PCR Kit (Qiagen™) in a LightCycler™ (Biorad™). Detection of early products of reverse transcription was done in reactions containing 100 ng of DNA and the primer pair 5′-[…]-3′ (SEQ ID NO. 1) and 5′-[…]-3′ (SEQ ID NO. 2) (R/U5 region) (60). […] Amplified products were analyzed by denaturation/renaturation to verify the specific Tm. The PCR cycle at which the signal entered the exponential range was used for quantification, and HIV copy numbers were corrected for those of α-tubulin. […] As a standard curve for relative quantification of integrated DNA, the Alu-gag was first run using serial dilutions of DNA isolated from HIV infected PBLs (diluted in HIV-negative DNA).

[5] = system: CD4; assay: Flow cytometry quantitation of surface receptor on PBLs; conditions: IL-2, 7 days, three donors
[6] = system: U1 cells; assay: U1 cell proliferation (optimization experiments); format: cell-based; conditions: concentrations higher than 10 nM
[7] = system: CCR5; assay: Flow cytometry quantitation of surface receptor on PBLs; conditions: IL-2, 7 days, three donors
[8] = system: CXCR4; assay: as above; conditions: IL-2, 7 days, three donors
[9] = Tolerability in huPBL-NSG mice (body weight, wasting, death)
[10] = system: non small cell lung cancer (NSCLC) A549 cells; assay: A549 xenograft tumor in NSG mice; format: in vivo; conditions: 5 mg/kg daily ip for 4 weeks
Procedure: A xenograft tumor was induced by subcutaneous injection of 5×10^6 non small cell lung cancer (NSCLC) A549 cells in mice according to an embodiment.
A xenograft tumor was induced by subcutaneous injection of 5×10^6 non small cell lung cancer (NSCLC) A549 cells in mice. After 3 weeks, tumors became visible (˜200 mm^3, as measured with calipers). Mice were treated with INK128, or vehicle control (FIG. 10A), daily (via ip) for 4 weeks. INK-128 was used at 5 mg/kg (FIG. 10B). Tumor volume was measured at the indicated time points (FIG. 10C).

For `CC(C)n1nc(-c2ccc3oc(N)nc3c2)c2c(N)ncnc21` [INK128, 5-(4-amino-1-propan-2-ylpyrazolo[3,4-d]pyrimidin-3-yl)-1,3-benzoxazol-2-amine], the integrated provirus [1] was “decreased levels”, the p24 production ([2]; U1 cells treated with 10 nM PMA) was “inhibited p24 production” and the p24 production ([2]; U1 cells treated with 1 μg/mL Tat) was “inhibited p24 production”. The p24 production ([2]; untreated U1 cells) was “inhibited p24 production”, the EC50 ([3]; Human immunodeficiency virus 1, Lymphocyte, both R5 and X4 HIV in primary lymphocytes) was less than 50 nM and the EC50 ([3]; Human immunodeficiency virus 1, read-out: EC50s ranging, R5 primary isolates, three donors) was 2.9 to 10.1 nM. For the same compound, the EC50 ([3]; Human immunodeficiency virus 1, read-out: EC50s ranging, X4 primary isolates, three donors) was 17.5 to 36.7 nM, the R/U5 transcripts ([4]; 16 hours) was “did not decrease” and the integrated provirus ([4]; 72 hours) was “did not decrease”. For the same compound, the CD4 receptor levels [5] was “did not impact”, the “cell proliferation of U1 cells” value [6] was “inhibition of cell proliferation” and the “percentages of CCR5 expressing cells” value ([7]; CD4+ and CD8+ T cell subsets) was “reduced”. For the same compound, the “CCR5 receptor density (molecules/cell)” value [7] was “decreased”, the “CXCR4 levels (percentage or density)” value [8] was “did not change” and the “effect on weight of the animals” value ([9]; 1-5 mg/kg once daily i.p. for 14 days) was “no adverse effects; also recorded: without obvious toxicity”. The “toxicity in pilot experiment” value ([9]; uninfected huPBL-NSG mice, 7 mg/kg daily i.p. for 2 wk) was “wasting and death” and the tumor growth [10] was “inhibits tumor growth”.
